Test results as given in US12257253B2, “Triamterene or nolatrexed for use in the treatment of phenylketonuria” (SOM INNOVATION BIOTECH, S.A., priority 2019, dated 2025).
Where a name gives a salt, the structure may show the parent alone.

Assays:
Type in all cases: cell-based
[1] = molecular target: T1, Arg261Gln (R261Q) PAH (Homo sapiens (Human), UniProt P00439, R261Q); assay: Phenylalanine hydroxylase enzyme activity assay in transfected COS7 cells; settings: compound 10 μM (sepiapterin 5 μM), 48 h
T1 sequence (P00439 whole entry R261Q): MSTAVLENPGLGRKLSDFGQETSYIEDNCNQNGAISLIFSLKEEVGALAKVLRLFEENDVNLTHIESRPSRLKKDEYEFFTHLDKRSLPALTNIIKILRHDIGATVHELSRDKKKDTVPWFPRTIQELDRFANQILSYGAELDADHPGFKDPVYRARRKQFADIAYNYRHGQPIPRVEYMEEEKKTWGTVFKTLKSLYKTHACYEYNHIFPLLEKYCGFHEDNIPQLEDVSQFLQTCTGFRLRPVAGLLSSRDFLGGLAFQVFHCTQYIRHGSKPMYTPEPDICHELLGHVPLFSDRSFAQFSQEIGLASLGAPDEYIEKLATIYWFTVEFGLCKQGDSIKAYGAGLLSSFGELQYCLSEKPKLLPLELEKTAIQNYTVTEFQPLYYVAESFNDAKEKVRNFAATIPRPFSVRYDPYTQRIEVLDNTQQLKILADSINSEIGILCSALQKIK
Method: (§1) 2. Phenylalanine Hydroxylase Enzyme Activity Assay
(§2) This assay was completed in cell culture to analyze the enzyme activity in the presence of compounds. In brief, wild-type or Arg261Gln PAH constructs were transiently expressed in COS7-cells in a 96 well format reflecting the PAH genotype (COS7 cell line has no endogenous PAH). Cells were treated with the compounds at a final concentration of 10 μM and the enzyme activity of PAH was analyzed 48 h after transfection. The effect of the compounds on the residual enzyme activity was determined in comparison to non-treated cells (NCC, only compound solvent final 0.1%). To normalize the cellular background signal non transfected cells (NT control) were treated with compound or solvent equally for 48 h. As a positive control we used sepiapterin, a stable precursor of BH4 (CAS 17094-01-8), stabilized in 100 mM DTT, in a final concentration of 5 μM.
(§3) PAH activities were assayed at 25° C. as previously described (Gersting, S. W., J. Biol. Chem., 2010, 285(40), 30686-30697) with modifications. The standard mixture contained 22.35 mM NaHepes, pH 7.0, […] catalase, 10 μM ferrous ammonium sulphate, and 1 mM L-Phe (L-phenylalanine) final. Assay mixture and cell culture enzyme were pre-incubated for 5 min and the reaction was initiated by the addition of 75 μM BH4 (stabilized in 100 mM dithiothreitol) final, run for 60 min and stopped by acetic acid. The amount of L-tyrosine production was measured and quantified by HPLC, assayed as triplicates.
(§4) The effect of compound on PAH enzyme activity was calculated from triplicates as follows: first the background of the NT cells were subtracted from the transfected cells (treated or NCC) and then the percentage of treated (compound) versus NCC was determined. Enzyme activity greater than 100% represents an increase in the enzyme activity with respect to NCC.

[2] = molecular target: T2, wild-type PAH (Homo sapiens (Human), UniProt P00439); assay: as above; settings: compound 10 μM (sepiapterin 5 μM), 48 h
T2 sequence (P00439 whole entry): as the sequence (P00439 whole entry R261Q) above, with Q261R counted along it
Method: as §1, §2, §3, §4

[3] = molecular target: T1, Arg261Gln (R261Q) PAH; assay: Phenylalanine hydroxylase residual protein amount (dot blot, COS-7 lysates); settings: COS-7, 48 h, COS-7 cells, compound 10 μM (sepiapterin 5 μM), read-out: PAH protein level (immune blot signal) R261Q PAH Mean
Method: (§5) 3. Phenylalanine Hydroxylase Residual Protein Amount
(§6) The analysis of the residual PAH protein amount was based on the method described in Gersting S. W. et al., Human Molecular Genetics, 2010, 19(10), 2039-2049 with modifications.
(§7) Detection of the residual PAH protein amount was performed as a dot blot using the lysates obtained from the cell culture where transiently transfected COS-7 cells (with wild-type PAH or PAH variant) were exposed for 48 h to compounds. The experiment was carried out from the same samples as used for measuring enzyme activities.
(§8) 2 μl of the lysate were dropped onto the nitrocellulose membrane. The membrane was allowed to air dry at room temperature for 30 min followed by 40 min blocking in 5% milk in TBS-Tween (room temperature). The membrane was incubated with the mouse monoclonal primary antibody specific for PAH (Millipore, Cat. No. MAB5278, 1:1000 dilution in 5% milk in TBS-Tween) for overnight at 4° C. Next, the membrane was washed (3×10 min in TBS-Tween) and incubated with the secondary HRP-conjugated antibody (anti-mouse antibody; Santa Cruz Biotechnology, Inc., Cat. No. sc-2005; 1:1000 dilution in 5% milk in TBS-Tween) followed by thorough washing in TBS-Tween (3×10 min) and distilled water (1×10 min). Blots were visualized with Pierce™ ECL substrate (ThermoFisher Scientific, Cat No. 32106) and chemiluminescence was monitored with a DIANA III Imaging system or ChemiDoc™ MP Imaging System (BioRad). To analyze the compound effect on the PAH protein amount densitometry analysis was performed using ImageJ Software.
(§9) The effect of compound on PAH protein amount was calculated from triplicates. As for determination of the enzyme activity the background of the not transfected cells (NT) was subtracted from the transfected cells (NCC or compound treated). In the next step delta of the NCC versus compound treated cells was calculated. Residual protein amount greater than 100% represents an increase in the stability of the enzyme with respect to NCC.

[4] = molecular target: T2, wild-type PAH; assay: as above; settings: COS-7, 48 h, COS-7 cells, compound 10 μM (sepiapterin 5 μM), read-out: PAH protein level (immune blot signal) WT PAH Mean
Method: as §5, §6, §7, §8, §9

Structure (SMILES)	PAH enzyme activity (L-Tyrosine formation) R261Q PAH Mean [1] [% NCC]	PAH enzyme activity (L-Tyrosine formation) WT PAH Mean [2] [% NCC]	PAH protein level (% of control) at 10 µM [3] [%]	PAH protein level (% of control) at 10 µM [4] [%]
Cc1ccc2[nH]c(N)nc(=O)c2c1Sc1ccncc1 [Nolatrexed 2HCl, 2-amino-6-methyl-5-(4-pyridylthio)-4(3H)-quinazolinone]	531.60	284.15	256	108
CCN1CCCC1CNC(=O)c1cc(S(=O)(=O)CC)ccc1OC (stereo not drawn) [Sultopride HCl, N-[(1-ethyl-2-pyrrolidinyl)methyl]-5-(ethylsulfonyl)-o-anisamide]	131.23	104.71		
C[C@H](O)C(=O)C1=Nc2c([nH]c(N)nc2=O)NC1 [Sepiapterin, S-(−)-2-amino-7,8-dihydro-6-(2-hydroxy-1-oxopropyl)-4(1H)-pteridinone]	2089.79	297.14		106
